The source of these data is BindingDB's records for doi:10.1021/jm980511k (Research Triangle Institute, 1999).

SMILES strings stand for the structures. Bounds are passed on as bounds.

Test [1] can be described thus: Binding affinity determined on Opioid receptor delta 1 in Guinea pig brain membranes using radioligand [3H]DADLE.
Test [2] in a line: Inhibition of [35S]GTP-gamma-S, binding from Opioid receptor delta 1 in Guinea pig Caudate stimulated by SNC80.

As for `CC(C)[C@@H](CN1CC[C@@](C)(c2cccc(O)c2)[C@@H](C)C1)NC(=O)CCc1ccc(O)cc1` [3-(4-Hydroxy-phenyl)-N-{1-[4-(3-hydroxy-phenyl)-3,4-dimethyl-piperidin-1-ylmethyl]-2-methyl-propyl}-propionamide], the Ki (in general, a dissociation constant, usually derived from enzyme kinetics or from competition with a known ligand) in test [1] was above 5.7 µM.
On to `C[C@@H]1CN(C/C=C/c2ccccc2)CC[C@]1(C)c1cccc(O)c1` [3-[(3S,4S)-3,4-Dimethyl-1-((E)-3-phenyl-allyl)-piperidin-4-yl]-phenol], for which the Ki in test [2] came to 0.0015 µM; in test [1], 0.322 µM.
